The results in this text go back to article PMC5225183, “Fingerprinting of neurotoxic compounds using a mouse embryonic stem cell dual luminescence reporter assay” (Archives of Toxicology, 2016).

The subject of data set [1] is ESCs and ESC-derived neurons. The experiment in a line: Dual luminescence reporter test system, all readouts in ESCs and ESC-derived neurons. Summed up:
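CGR8-2Luc mouse ESCs (dual reporter: Tα1-FLuc neural, EF1α-RLuc general) exposed 48 h after 24 h plating; ESC-derived neurons re-plated day 5 in N2/bFGF medium. Luciferase normalized to DMSO controls; PI (50 µg/ml, 2 h) measured DNA content as cytotoxicity. Curves scored by ≥30% significant change (ANOVA/Dunnett).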

For the next data set, the system named is ESC-derived neurons. The gist of the method:
(§1)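 Mouse CGR8-2Luc ESCs in LIF-containing medium were exposed to compounds for 48 h; ESC-derived neurons (MS5 co-culture, replated day 5 in N2/bFGF medium) were exposed from day 6 to day 8. Read-outs: Tα1-FLuc, EF1α-RLuc and PI DNA content as % of control. LOAEL = lowest concentration giving a significant decrease versus baseline.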

A further data set deals with CGR8-2Luc ESCs. Summed up: as §1
The mark [2] stands for this setting: ESC-derived neurons, 48 h exposure, PI assay (cytotoxicity).
Setting [3] is: undifferentiated ESCs, 48 h exposure, PI assay (cytotoxicity).
The mark [4] stands for this setting: ESCs and neurons, FLuc, RLuc, PI.
Where [5] appears, read: reporter activity changes in the non-cytotoxic concentration range, highest possible number 4.

One may read the EC20 as the point of the concentration-response curve where the effect stands at 20%.

Entries after “also recorded” stand apart in the source; their conditions may differ. Read-outs that look alike come from different tables or passages of the source. Some results are limits rather than exact numbers.

Consider `Cc1[nH]c2ccccc2c1CCNCc1ccc(/C=C/C(=O)NO)cc1` [Panobinostat], for which the “result in the dual luminescence reporter test system” value (“result” below) in data set [1] is “no enhancement of promoter activities under any condition”. In addition, the “Number of non-cytotoxic changes” value in data set [1] (mouse, 48 h) was found to be 1. In the data set with ESC-derived neurons (setting [2]), the “LOAEL Neurons DNA” value was 0.05 µM. Moreover, the “LOAEL ESC DNA” value in the data set with CGR8-2Luc ESCs (setting [3]) is on record as 0.05 µM.
`CC(C)NCC(O)COc1cccc2ccccc12` (stereo not shown) [Propranolol]: the “Number of non-cytotoxic changes” value in data set [1] (mouse, 48 h) came to 2. The “LOAEL Neurons DNA” value with ESC-derived neurons (setting [2]) stood at 50 µM. For the same molecule, the “LOAEL ESC DNA” value in the data set with CGR8-2Luc ESCs (setting [3]) is reported as >50 µM.
In the same order, the values of `Nc1ccccc1NC(=O)c1ccc(CNC(=O)OCc2cccnc2)cc1` [Entinostat] are 1, 50 µM and 5 µM.
For `COCC(=O)O` [Methoxyacetic acid], in data set [1] (setting [4]), the “result” value was “very weak signal; also recorded: relatively weak signal”. Besides, the “Number of non-cytotoxic changes” value in data set [1] (setting [5]) stood at 1. Besides, the “LOAEL Neurons DNA” value in the data set with ESC-derived neurons (setting [2]) is reported as >50 µM. In addition, the “LOAEL ESC DNA” value with CGR8-2Luc ESCs (setting [3]) is listed as >50 µM.
On to `C[CH2][Hg][S]c1ccccc1C(=O)[O-].[Na+]` [Thimerosal], for which, in data set [1], the “Number of non-cytotoxic changes” value was 0. Besides, the “LOAEL Neurons DNA” value with ESC-derived neurons is given as 0.5 µM. In addition, the “LOAEL ESC DNA” value with CGR8-2Luc ESCs is given as 0.5 µM.
Consider `C/C(O)=C(\C#N)C(=O)Nc1ccc(C(F)(F)F)cc1` [Teriflunomide], for which the “concentration range of various effects” value in data set [1] was in the range of 4 to 40 µM. In addition, the “result” value in data set [1] (setting [4]) is listed as “no effects on general promoter activity and/or on PI fluorescence”. For the same molecule, in data set [1] (setting [5]), the “Number of non-cytotoxic changes” value is given as 1. The “LOAEL Neurons DNA” value in the data set on ESC-derived neurons (setting [2]) is reported as >50 µM. For the same molecule, in the data set on CGR8-2Luc ESCs (setting [3]), the “LOAEL ESC DNA” value is on record as >50 µM.
Consider `Brc1ccc(Oc2cc(Br)c(Br)cc2Br)c(Br)c1` [PBDE-99], for which the “result” value in data set [1] (setting [4]) is reported as “potentially neurotoxic”. Moreover, the “Number of non-cytotoxic changes” value in data set [1] (setting [5]) is 1. The “effect on cell number in neurons” value in the data set with ESC-derived neurons is reported as “moderate cell number decrease”. The “LOAEL Neurons DNA” value in the data set with ESC-derived neurons (setting [2]) came out at 5 µM. Moreover, the “LOAEL ESC DNA” value with CGR8-2Luc ESCs (setting [3]) is given as >50 µM.
Regarding `COc1cc2ncnc(Nc3ccc(F)c(Cl)c3)c2cc1OCCCN1CCOCC1` [Gefitinib], the “Number of non-cytotoxic changes” value in data set [1] (mouse, 48 h) was 0. The “LOAEL Neurons DNA” value with ESC-derived neurons (setting [2]) is 50 µM. Moreover, the “LOAEL ESC DNA” value in the data set on CGR8-2Luc ESCs (setting [3]) is on record as 50 µM.
On to “Erythropoietin: EpoR agonist controlling erythropoiesis and neurogenesis; Peptide/Protein”, for which the “Number of non-cytotoxic changes” value in data set [1] (setting [5]) turned out to be 0. For the same molecule, the “LOAEL Neurons DNA” value with ESC-derived neurons is given as >0.238 µM. Moreover, the “LOAEL ESC DNA” value in the data set with CGR8-2Luc ESCs was >0.238 µM.
Consider `O=c1[nH]c(=O)c2[nH]c(=O)[nH]c2[nH]1` [Uric acid], for which the “result” value in data set [1] (setting [4]) is listed as “negative”. The “Number of non-cytotoxic changes” value in data set [1] (setting [5]) was found to be 0. Also, the “LOAEL Neurons DNA” value with ESC-derived neurons (setting [2]) is >50 µM. Besides, in the data set on CGR8-2Luc ESCs (setting [3]), the “LOAEL ESC DNA” value was >50 µM.
Take `COC1=C2C[C@@H](C)C[C@H](OC)[C@H](O)[C@@H](C)/C=C(\C)[C@H](OC(N)=O)[C@@H](OC)/C=C\C=C(/C)C(=O)NC(=CC1=O)C2=O` [Geldanamycin]: in data set [1], the “result” value is given as “considerable cytotoxicity”. The molecule also came in with an EC20 in data set [1] (in vitro system (neurons and ESCs)) of 1 to 10 nM. Further, in data set [1] (mouse, 48 h), the “Number of non-cytotoxic changes” value is 1. In addition, the “LOAEL Neurons DNA” value in the data set on ESC-derived neurons (setting [2]) is 0.05 µM. For the same molecule, the “LOAEL ESC DNA” value with CGR8-2Luc ESCs (setting [3]) was determined as 0.05 µM.
On to `[CH3][Hg][Cl]` [Methylmercury], for which, in data set [1] (setting [5]), the “Number of non-cytotoxic changes” value stood at 1. Moreover, the “LOAEL Neurons DNA” value in the data set on ESC-derived neurons (setting [2]) is 0.5 µM. Also, the “LOAEL ESC DNA” value with CGR8-2Luc ESCs (setting [3]) came out at 0.5 µM.
As to `COC(=O)c1ccc2c(c1)NC(=O)/C2=C(\Nc1ccc(N(C)C(=O)CN2CCN(C)CC2)cc1)c1ccccc1` [Nintedanib], in data set [1] (mouse, 48 h), the “Number of non-cytotoxic changes” value stood at 2. Moreover, the “LOAEL Neurons DNA” value in the data set with ESC-derived neurons (setting [2]) was found to be 5 µM. Further, the “LOAEL ESC DNA” value with CGR8-2Luc ESCs (setting [3]) is reported as 5 µM.
Turning to Oxytocin, the “result” value in data set [1] (setting [4]) is reported as “did not have any effects”. Further, the “Number of non-cytotoxic changes” value in data set [1] (setting [5]) turned out to be 0. In the data set on ESC-derived neurons (setting [2]), the “LOAEL Neurons DNA” value is given as >0.1 µM. Moreover, the “LOAEL ESC DNA” value in the data set on CGR8-2Luc ESCs (setting [3]) is listed as >0.1 µM.
`[Br][Hg][Br]` [Mercury bromide]: the “Number of non-cytotoxic changes” value in data set [1] turned out to be 1. The “LOAEL Neurons DNA” value in the data set with ESC-derived neurons (setting [2]) is recorded as >10 µM. Also, the “cytotoxicity on ESCs” value with CGR8-2Luc ESCs is on record as “highly cytotoxic”. In addition, in the data set with CGR8-2Luc ESCs (setting [3]), the “LOAEL ESC DNA” value worked out at 5 µM.
With `COc1ccc2[nH]c([S+]([O-])Cc3ncc(C)c(OC)c3C)nc2c1` (stereo not shown) [Omeprazole], in data set [1], the “result” value is “negative”. Further, the “Number of non-cytotoxic changes” value in data set [1] (mouse, 48 h) turned out to be 0. The “LOAEL Neurons DNA” value in the data set with ESC-derived neurons (setting [2]) is given as >50 µM. Further, the “LOAEL ESC DNA” value in the data set with CGR8-2Luc ESCs (setting [3]) is on record as >50 µM.
For the molecule `O=C(/C=C/c1cccc(S(=O)(=O)Nc2ccccc2)c1)NO` [Belinostat], in data set [1] (mouse, 48 h), the “Number of non-cytotoxic changes” value came out at 1. For the same molecule, the “LOAEL Neurons DNA” value in the data set with ESC-derived neurons (setting [2]) was found to be 50 µM. The “LOAEL ESC DNA” value in the data set on CGR8-2Luc ESCs (setting [3]) stood at 0.5 µM.
The corresponding values for `O=C(NC[C@H]1CN(c2ccc(N3CCOCC3=O)cc2)C(=O)O1)c1ccc(Cl)s1` [Rivaroxaban] are 0, >10 µM and >10 µM.
Regarding `C[C@]12CC[C@H](O)CC1=CC[C@@H]1[C@@H]2CC[C@]2(C)C(c3cccnc3)=CC[C@@H]12` [Abiraterone], in data set [1] (mouse, 48 h), the “Number of non-cytotoxic changes” value is recorded as 1 and the “concentration up to which no cytotoxicity in the PI assay” value is on record as > 100 µM. Besides, in the data set on ESC-derived neurons (setting [2]), the “LOAEL Neurons DNA” value is on record as >2 µM. Besides, in the data set on CGR8-2Luc ESCs (setting [3]), the “LOAEL ESC DNA” value is reported as >2 µM.
Take `CCCC(CCC)C(=O)O` [Valproic acid]: in data set [1] (mouse, 48 h), the “Number of non-cytotoxic changes” value is listed as 2. The “LOAEL Neurons DNA” value in the data set on ESC-derived neurons (setting [2]) turned out to be 5000 µM. Moreover, in the data set with CGR8-2Luc ESCs (setting [3]), the “LOAEL ESC DNA” value came to 5000 µM.

B1: G-CSF: Hormone stimulating granulopoiesis; Peptide/Protein (protein, UniProt P09919 31-207, looked up)
Granulocyte …: TPLGPASSLPQSFLLKCLEQVRKIQGDGAALQEKLVSECATYKLCHPEELVLLGHSLGIPWAPLSSCPSQALQLAGCLSQLHSGLFLYQGLLQALEGISPELGPTLDTLQLDVADFATTIWQQMEELGMAPALQPTQGAMPAFASAFQRRAGGVLVASHLQSFLEVSYRVLRHLAQP
As for B1, the “Number of non-cytotoxic changes” value in data set [1] (setting [5]) came to 0. Also, the “LOAEL Neurons DNA” value in the data set on ESC-derived neurons was >0.00266 µM. Moreover, the “LOAEL ESC DNA” value in the data set with CGR8-2Luc ESCs is >0.00266 µM.
